The test system of series [1] is HSP27. The series is described as follows: HSP27 induction by proteasome and HSP90 inhibitors in MM.1S cells, immunoblotting. The settings on record: VELCADE or Radicicol, emunin 10 μM, NZ28 2 μM added 5 hours before.
Series [2] has as its system HSP72 induction (CHO cells). As to the kind of experiment: Inhibition of Hsp72 induction by heat shock in CHO cells (immunoblotting). Type of series: cell-based.
The subject of series [3] is luciferase under the tet-off promoter. As to the kind of experiment: General protein synthesis: luciferase induction under tet-off promoter in CHO cells. The settings on record: 24 hours, NZ28 1 and 2 μM. The format is cell-based.
Series [4] relates to HSP72. The series is described as follows: HSP72 induction in PC-3 cells (heat shock, proteasome or HSP90 inhibitors), immunoblotting. Type of series: cell-based, human. The conditions noted are these: for inhibition at 2 µM: Homo sapiens, read-out: HSP72 Inhibition, by NZ28 (2 μM). (A western blot detects proteins with antibodies after separation by electrophoresis.)
For series [5], the system named is CMV-driven GFP. The series is described as follows: General protein synthesis: CMV-driven GFP expression in CHO cells. The format is cell-based. The settings on record: added 16 hours post-infection, 24 hours, NZ28 2 μM, emunin 10 μM.
Series [6] has as its system HSP72. The series is described as follows: HSP72 induction in MEF cells (proteasome or HSP90 inhibitors), immunoblotting. The conditions noted are these: Mus musculus, read-out: HSP72 Inhibition, by NZ28 (2 μM).
For series [7], the system named is CHO cells. The series is described as follows: Toxicity in CHO cells. The format is cell-based. The settings on record: CHO cells. The source says: Three of these compounds, including emetine, tubulosine, and NZ28, have significant structural similarity.
Series [8] relates to HSF1-activated Hsp70B promoter. The series is described as follows: HSF1 activity: luciferase reporter under Hsp70B promoter in PC-3 cells after heat shock. The conditions noted are these: added 5 hours before 45° C. 10 min, overnight recovery. For orientation: A reporter such as luciferase makes a cellular process visible.
In series [9] the test system is HSP72. The series is described as follows: HSP72 induction in MM.1S cells (heat shock, proteasome or HSP90 inhibitors), immunoblotting. The format is cell-based, human. The settings on record: for inhibition at 2 µM: Homo sapiens, MM1.S, MM.1s, read-out: HSP72 Inhibition, by NZ28 (2 μM).
Series [10] has as its system MM.1S cells. As to the kind of experiment: Apoptosis by PARP cleavage in MM.1S cells. The settings on record: 0.1 μM radicicol 48 h, 2 μM NZ28.

The values below come from patent publication US20090062222A1, “Methods for Sensitizing Cancer Cells to Inhibitors” (TRUSTEES OF BOSTON UNIVERSITY, priority 2005, published 2009).

Where two headings read alike, the source gives them in different places.

A word on the inhibition: it is how much of the control response was suppressed. The IC50 is the concentration that gives 50% inhibition. On to `CCC1=C(CC2NCCc3ccccc32)CC2c3cc(OC)c(OC)cc3CCN2C1` (stereo not shown) [NZ28], for which the “Inhibition of Hsp27 induction” value in series [1] was “inhibit HSP72 and HSP27 induction”. Besides, the “Inhibition of Hsp72 induction, second step of the screening” value in series [2] (2 μM, CHO cells, 45° C. 10 min, then 6 hours at 37° C.) is on record as “inhibit Hsp72 induction”. Further, the inhibition at 2 µM in series [2] (Cricetulus griseus, 10 min, CHO, Heat Shock 45° C., 10 min, 2 μM, read-out: HSP72 Inhibition, by NZ28 (2 μM)) stood at 99%; in series [4] (PC-3, 20 min, PC-3, Heat Shock 45° C., 20 min), 85%; in series [4] (PC-3, PC-3, HSP90 Inhibitor 17-AAG 2 μM) it was 70%; in series [4] (PC-3, PC-3, Proteasome Inhibitor MG132 1 μM), 90%; in series [6] it was 100%; in series [9] (4 min, Heat Shock 45° C., 4 min), 100%. Further, the inhibition at 2 µM turned out to be 90% in series [9] (HSP90 Inhibitor Radicicol 0.8 μM) and 100% in series [9] (Proteasome Inhibitor VELCADE 5 nM). In addition, the IC50 amounted to 1 µM in series [2] (Cricetulus griseus, CHO cells, heat shock (FIGS. 3A and 3B), read-out: IC50 for inhibition of Hsps induction); 1 µM in series [2] (Cricetulus griseus, CHO cells, heat shock, read-out: IC50 HSP72 Induction Inhibition (CHO cells)); 5 µM in [7] (Cricetulus griseus, read-out: IC50 toxicity). In addition, in series [3], the “Inhibition of luciferase expression (tet-off promoter)” value is “Neither NZ28 (FIG. 3C) nor emunin (not shown) inhibited luciferase expression”. The “Inhibition of Hsp72 induction by 17-AAG” value in [4] (PC-3 cells) is recorded as “significant but transient”. In addition, the “Inhibition of GFP expression (CMV promoter)” value in [5] is listed as “No significant inhibition of GFP expression”. The Cell growth inhibition result in series [7] is “slight growth inhibition”. For the same compound, the “Toxicity” value in series [7] is given as “did not show toxicity”. Also, the “Inhibition of luciferase induction by heat shock (Hsp70B promoter reporter)” value in [8] is given as “about 40%”. In addition, in series [9] (MM.1S blocked stronger than PC-3), the “Inhibition of Hsp72 induction in response to Hsp90 inhibitors radicicol and 17-AAG” value is on record as “inhibited induction of Hsp72”. Further, the “Inhibition of HSP72 induction by proteasome inhibitors” value in series [9] (MM.1S, VELCADE or MG132 for 16 hours) is “almost completely inhibited HSP72 induction”. Further, the “Sensitization to radicicol (PARP cleavage)” value in [10] is listed as “similarly sensitized”.
